Test results as given in patent publication US5603755A, “Preventive agent for fouling organisms” (Ihara Chemical Industry Co., Ltd., priority 1994, dated 1997).

Test system: Balanus amphitrite
Assay: whole plant or invertebrate
Conditions: 0.1 ppm; cypris larvae, 20° C., 24 hours (Table 1)
Protocol: The nauplii of Balanus amphitrite, hatched in a natural sea water sterilized by filtration were tamed with a diatom feed to convert them into cypris larvae (settling stage larvae). Ten of these cypris larvae and 4 ml of a natural sea water sterilized by filtration were placed in a laboratory dish having a diameter of 3 cm. 10 mg of a present agent compound was made into 1 g of an emulsion with an emulsifier consisting of cyclohexanone and Tween 80 (a trade name of Kao Atlas Co., Ltd.), and the emulsion was diluted to a given concentration of present agent compound with an artificial sea water. 1 ml of the diluted solution was added into the above laboratory dish. The laboratory dish was allowed to stand in a thermostat of 20° C. for 24 hours, and the number of dead cypris larvae was examined. This test was repeated three times, and the mortality rate of Balanus amphitrite at a given concentration of present agent compound was determined.
A test for mortality rate was conducted in the same manner as in Test 1 except that bis(tributyltin) oxide (hereinafter referred to simply as "TBTO" in some cases) was used as a test compound in place of the present agent compound.
Tests for mortality rate were conducted in the same manner as in Tests 1-10 except that the present agent compounds were changed to those shown in Table 4.
Tests for mortality rate were conducted in the same manner as in Tests 1-10 except that the present agent compounds were changed to those shown in Table 6.

SMILES	Mortality rate
CCC[CH2][Sn]([CH2]CCC)([CH2]CCC)[O][Sn]([CH2]CCC)([CH2]CCC)[CH2]CCC [TBTO, bis(tributyltin) oxide, reference compound]	50%

Same assay, conditions: Amphibalanus amphitrite, 24 h, read-out: Mortality rate

SMILES	mortality at 0.1 ppm
N#CC(=C(O)c1ccccc1Cl)c1nc(-c2ccccc2)cs1 [Test 1]	100%
CC(C)(C)c1csc(C(C#N)=C(O)c2ccccc2Cl)n1 [Test 2]	100%
Cc1ccccc1-c1csc(C(C#N)=C(O)c2ccccc2Br)n1 [Test 3]	100%
Cc1ccccc1-c1csc(C(C#N)=C(O)c2ccccc2I)n1 [Test 4]	100%
N#CC(=C(O)c1ccccc1Cl)c1nc(-c2ccccc2Cl)cs1 [Test 5]	100%
N#CC(=C(O)c1ccccc1Cl)c1nc(-c2ccccc2F)cs1 [Test 6]	100%
N#CC(=C(O)c1c(F)cccc1Cl)c1nc(-c2ccccc2F)cs1 [Test 7]	100%

Same assay, conditions: barnacle, in vivo, 24 h

SMILES	Mortality rate
CC(=O)OC(=C(C#N)c1nc(-c2ccccc2)cs1)c1ccccc1Cl [Test 13]	100%
Cc1ccc(C(=O)OC(=C(C#N)c2nc(-c3ccccc3)cs2)c2ccccc2Cl)cc1 [Test 14]	100%
CCCCC(=O)OC(=C(C#N)c1nc(-c2ccccc2)cs1)c1ccccc1Cl [Test 15]	100%
N#CC(=C(OC(=O)c1ccccc1)c1ccccc1Cl)c1nc(-c2ccccc2)cs1 [Test 16]	100%
CS(=O)(=O)OC(=C(C#N)c1nc(-c2ccccc2)cs1)c1ccccc1Cl [Test 17]	100%
Cc1ccc(S(=O)(=O)OC(=C(C#N)c2nc(-c3ccccc3)cs2)c2ccccc2Cl)cc1 [Test 18]	100%
CCCCS(=O)(=O)OC(=C(C#N)c1nc(-c2ccccc2)cs1)c1ccccc1Cl [Test 19]	100%
N#CC(=C(OS(=O)(=O)c1ccccc1)c1ccccc1Cl)c1nc(-c2ccccc2)cs1 [Test 20]	100%

Test system: not listed separately
Assay: in vivo
Conditions: rat, po

SMILES	LD50
N#CC(C(=O)c1ccccc1Cl)=C1NC(c2ccccc2)=CS1 [3-(2-chlorophenyl)-2-(4-phenyl-2,3-dihydrothiazole-2-ylidene)-3-oxopropionitrile]	≥ 5000 mg/kg
